{
  "source": "patent US11535597B2",
  "about": "“Photoreactive ligands and uses thereof” (The Scripps Research Institute, priority 2017, dated 2022)",
  "key": {"PTGR2": {"target": "PTGR2 (Homo sapiens, UniProt Q8N8N7)", "sequence (Q8N8N7 whole entry, the tested form may be a part)": "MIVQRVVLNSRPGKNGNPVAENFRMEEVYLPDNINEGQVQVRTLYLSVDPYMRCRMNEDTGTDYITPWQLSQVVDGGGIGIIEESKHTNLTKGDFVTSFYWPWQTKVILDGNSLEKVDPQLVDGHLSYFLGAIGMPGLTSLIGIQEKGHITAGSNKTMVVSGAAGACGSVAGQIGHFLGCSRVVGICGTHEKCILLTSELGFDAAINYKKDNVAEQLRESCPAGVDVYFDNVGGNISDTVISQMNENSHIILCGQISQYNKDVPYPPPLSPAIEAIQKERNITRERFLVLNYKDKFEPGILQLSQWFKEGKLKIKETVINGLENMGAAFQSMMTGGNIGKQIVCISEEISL", "test": "PPARγ luciferase reporter assay in PTGR2-transfected HEK293T cells (15-keto-PGE2-dependent)", "assay_type": "cell-based", "settings": "cells recombinantly expressing PTGR2", "procedure": "(§1) HEK293T cells were transiently co-transfected using Polyethylenimine (Sigma) with a UAS-Luciferase reporter and a vector expressing the heterologous GAL4 DNA binding domain (DBD) or a GAL4 DNA binding domain::PPARγ ligand binding domain (LBD) chimeric protein, and full-length PTGR2. 24 hr after transfection, cells were treated either with vehicle (DMSO), 15k-PGE2 (20 μM), or fragment compounds. Rosiglitazone (2 μM), a synthetic PPARγ ligand, was used as control. 16 hr after incubation, cells were lysed in Cell Culture Lysis Reagent (Promega) and luciferase activity measured using the Luciferase Assay System (Promega)."}, "PPARγ": {"target": "T1, PPARγ (Homo sapiens, UniProt P37231)", "T1 construct": "expressed in transfected cells; host or cells: HEK293T", "T1 sequence (P37231 238-503 limits assumed)": "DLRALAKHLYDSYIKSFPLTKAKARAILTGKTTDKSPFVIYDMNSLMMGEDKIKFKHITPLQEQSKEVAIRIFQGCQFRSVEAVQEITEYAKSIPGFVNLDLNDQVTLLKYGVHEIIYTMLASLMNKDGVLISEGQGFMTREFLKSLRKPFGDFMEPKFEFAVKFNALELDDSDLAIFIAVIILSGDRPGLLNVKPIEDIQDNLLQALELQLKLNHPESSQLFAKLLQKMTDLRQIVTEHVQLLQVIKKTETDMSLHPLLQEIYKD", "test": "GAL4-PPARγ luciferase reporter assay with empty control vector in HEK293T cells", "assay_type": "cell-based", "settings": "GAL4-PPARγ luciferase reporter and empty control vector", "procedure": "as §1"}, "BAX": {"target": "T2, BAX (Homo sapiens, UniProt Q07812)", "T2 construct": "endogenous in cells; host or cells: human cells (HEK293T; a subset of probes also in K562)", "T2 sequence (Q07812 whole entry, the tested form may be a part)": "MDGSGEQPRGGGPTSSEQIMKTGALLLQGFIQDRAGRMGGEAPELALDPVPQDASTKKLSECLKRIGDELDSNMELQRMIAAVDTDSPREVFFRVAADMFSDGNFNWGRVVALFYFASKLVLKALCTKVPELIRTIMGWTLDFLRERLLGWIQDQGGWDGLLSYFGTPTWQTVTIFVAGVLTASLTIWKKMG", "test": "Mapping of FFF probe-modified peptide on BAX", "assay_type": "binding", "settings": "for Labeled Peptide: residues of probe-labeled peptide", "procedure": "Preparation and analysis was adapted from methods previously reported. In brief, for global mapping of fragment probe-modified peptides, separate 10 cm dishes of cells were treated with probes (200-250 μM) in 3.0 mL of DMEM (serum-free) and (if applicable) competitor ligands, proteomes harvested and subjected to click chemistry conditions with either light or heavy isotopically labeled biotin-TEV-azide (10 μL of 5 mM stocks in DMSO, final concentration=100 μM), TCEP, ligand and CuSO4 as detailed above. The samples were allowed to react for 1 h at which point the samples were centrifuged (16,000 g, 5 min, 4° C.). The resulting pellets were sonicated in ice-cold methanol (500 μL) and the resuspended light- and heavy-labeled samples were then combined and centrifuged (16,000 g, 5 min, 4° C.). The pellets were then solubilized in PBS containing 1.2% SDS (1 mL) with sonication and heating (5 min, 95° C.). Samples were transferred to falcon tubes containing DPBS (5 mL), to which a 100 μL of streptavidin-agarose beads slurry was added. After incubation, the beads (3 hr) were pelleted by centrifugation (1,400 g, 3 min) and were washed (2×10 mL PBS and 2×10 mL water). The beads were transferred to eppendorf tubes with 1 mL DPBS, centrifuged (1,400 g, 3 min), and resuspended in PBS containing 6 M urea. To this was added 10 mM DTT (25 μL of a 200 mM stock in water) and the beads were incubated at 65° C. for 15 mins. 20 mM iodoacetamide (25 μL of a 400 mM stock in water) was then added and allowed to react at 37° C. for 30 mins with shaking. The bead mixture was diluted with 900 μL PBS, pelleted by centrifugation (1,400 g, 3 min), and resuspended in 200 μL 2M urea (DPBS) containing trypsin and CaCl2 as described above. […]\n(§2) The resulting probe-modified peptides were collected for MS analysis, which was performed as described above with differences in the salt bumps applied in the chromatographic gradients which in this case were 0%, 30%, 60%, 90% and 100% NH4OAc (500 μM). […] The isoTOP ratios for probe labeled peptides were quantified using the in-house software CIMAGE. […]"}, "α-galactosidase (GLA)": {"target": "T3, α-galactosidase (GLA) (Homo sapiens, UniProt P06280)", "T3 construct": "endogenous in cells; host or cells: human cells (HEK293T; a subset of probes also in K562)", "T3 sequence (P06280 32-429)": "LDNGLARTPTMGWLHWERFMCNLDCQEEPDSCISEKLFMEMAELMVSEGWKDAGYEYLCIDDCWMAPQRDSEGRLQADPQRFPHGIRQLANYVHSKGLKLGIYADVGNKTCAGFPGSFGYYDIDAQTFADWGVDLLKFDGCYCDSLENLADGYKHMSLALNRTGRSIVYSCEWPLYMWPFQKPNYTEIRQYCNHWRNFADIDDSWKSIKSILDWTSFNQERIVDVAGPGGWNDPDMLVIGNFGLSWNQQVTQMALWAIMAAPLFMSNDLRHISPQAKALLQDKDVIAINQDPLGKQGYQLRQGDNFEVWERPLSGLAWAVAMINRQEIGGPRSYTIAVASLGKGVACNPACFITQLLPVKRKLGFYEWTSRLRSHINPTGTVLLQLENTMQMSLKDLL", "test": "Mapping of FFF probe-modified peptides on α-galactosidase (GLA)", "assay_type": "binding", "settings": "near the active site and a secondary ligand binding site, respectively", "procedure": "Preparation and analysis was adapted from methods previously reported. In brief, for global mapping of fragment probe-modified peptides, separate 10 cm dishes of cells were treated with probes (200-250 μM) in 3.0 mL of DMEM (serum-free) and (if applicable) competitor ligands, proteomes harvested and subjected to click chemistry conditions with either light or heavy isotopically labeled biotin-TEV-azide (10 μL of 5 mM stocks in DMSO, final concentration=100 μM), TCEP, ligand and CuSO4 as detailed above. The samples were allowed to react for 1 h at which point the samples were centrifuged (16,000 g, 5 min, 4° C.). The resulting pellets were sonicated in ice-cold methanol (500 μL) and the resuspended light- and heavy-labeled samples were then combined and centrifuged (16,000 g, 5 min, 4° C.). The pellets were then solubilized in PBS containing 1.2% SDS (1 mL) with sonication and heating (5 min, 95° C.). Samples were transferred to falcon tubes containing DPBS (5 mL), to which a 100 μL of streptavidin-agarose beads slurry was added. After incubation, the beads (3 hr) were pelleted by centrifugation (1,400 g, 3 min) and were washed (2×10 mL PBS and 2×10 mL water). The beads were transferred to eppendorf tubes with 1 mL DPBS, centrifuged (1,400 g, 3 min), and resuspended in PBS containing 6 M urea. To this was added 10 mM DTT (25 μL of a 200 mM stock in water) and the beads were incubated at 65° C. for 15 mins. 20 mM iodoacetamide (25 μL of a 400 mM stock in water) was then added and allowed to react at 37° C. for 30 mins with shaking. The bead mixture was diluted with 900 μL PBS, pelleted by centrifugation (1,400 g, 3 min), and resuspended in 200 μL 2M urea (DPBS) containing trypsin and CaCl2 as described above. The beads were separated from the digest by centrifugation (1,000 g, 1 min), washed (2×1 mL PBS and 2×1 mL water) and then transferred to fresh eppendorfs with 1 mL water. The washed beads were washed once further in 150 μL TEV buffer (50 mM Tris, pH 8, 0.5 mM EDTA, 1 mM DTT) by centrifugation (1,400 g, 3 min) and the resuspended in 150 μL TEV buffer. 5 μL TEV protease (80 μM) was added and the reactions were rotated overnight at 29° C. The TEV digest was separated from the beads by centrifugation (1,400 g, 3 min) and the beads were washed once with water (100 μL). The samples were then acidified to a final concentration of 5% (v/v) formic acid and stored at −80° C. prior to analysis.\nas §2"}},
  "note": "Entries after “also recorded” stand apart in the source; their conditions may differ.",
  "data": [
    {"smiles": "COc1ccccc1N1CCN(C(=O)Cc2ccccc2)CC1", "note": "[Compound 22, 1-(4-(2-Methoxyphenyl)piperazin-1-yl)-2-phenylethan-1-one]", "values": [
      {"measurement": "15-keto-PGE2-dependent PPARγ transcriptional activity", "setting": "PTGR2", "value": "increased; also recorded: concentration-dependent rescue"},
      {"measurement": "direct modulation of PPARγ transcriptional activity", "setting": "PPARγ", "value": "do not directly induce; also recorded: Neither 22 nor 23 directly modulated"}
    ]},
    {"smiles": "C#CCCC1(CCC(=O)N2CCCCC2Cc2ccccc2)N=N1", "note": "(stereo not drawn) [probe 13, 1-(2-Benzylpiperidin-1-yl)-3-(3-(but-3-yn-1-yl)-3H-diazirin-3-yl)propan-1-one]", "values": [
      {"measurement": "probe-modified peptide in BAX", "setting": "BAX; groove that binds BH3-domain activators Bim and Bid", "value": "aa 66-79"},
      {"measurement": "Labeled Peptide", "setting": "BAX; protein BAX (Q07812)", "value": "66-78"},
      {"measurement": "Labeled Peptide", "setting": "BAX; protein BAX Apoptosis regulator BAX", "value": "66-78"}
    ]},
    {"smiles": "C#CCCC1(CCC(=O)Nc2ccc(C3CCNCC3)cc2)N=N1", "note": "[probe 9, 3-(3-(But-3-yn-1-yl)-3H-diazirin-3-yl)-N-(4-(piperidin-4-yl)phenyl)propanamide]", "values": [
      {"measurement": "probe-modified peptides in GLA", "setting": "α-galactosidase (GLA)", "value": "aa 50-68; also recorded: aa 241-253"}
    ]}
  ]
}
